Ends that are not written are not given here.
Assays:
MDPC-23 cells = test: Peptide translocation and localization by immunofluorescence; format: cell-based, mouse
Description: For peptide translocation and localization analysis, a Cy5 Fast Conjugation Kit (ab188288, Abcam, Cambridge, MA, USA) was used to tag Cpne7-DP according to the manufacturer’s instructions. MDPC-23 cells were treated with Cy5-labeled Cpne7-DP (10 µg/mL) and fixed 3 h later. Before fixing with 4% paraformaldehyde in PBS, cells in Laboratory-Tek chamber slides (Nunc, Rochester, NY, USA) were washed with PBS. Cells were then visualized using fluorescence microscopy (AX70, Olympus, Tokyo, Japan). DAPI (Sigma-Aldrich) was used to identify the chromosomal DNA in the nucleus (1:1000 dilution).

[1] = Dentinal tubule penetration by confocal laser scanning microscopy; design: species or system human; conditions: Rhodamin B-labeled Cpne7-DP 20 µg microbrushed for 1 min onto acid-etched dentin of extracted tooth, PBS wash
Description: Human third molars were collected at the Seoul National University Dental Hospital (Seoul, Korea), and the experimental protocol was approved by the Institutional Review Board (IRB No: S-D20140007). Teeth were decoronated to 2–3 mm using a safe diamond disc (Isomet, Buehler Ltd., Düsseldorf, Germany) to eliminate the coronal enamel layer and expose the dentin surface. Teeth were then treated with 5 mL of 32% phosphoric acid solution for 5 min to completely open the dentinal tubules. To remove the residual smear layer, specimens were ultrasonicated in deionized water twice for 5 min each and then rinsed with PBS three times.
Cpne7-DP was tagged with Rhodamin B dye using the Rhodamine Fast Conjugation kit (ab188286, Abcam, Cambridge, MA, USA) according to the manufacturer’s instructions. Rhodamin B-labeled Cpne7-DP (20 µg) was applied to the dentin surfaces of specimens with the help of disposable microbrushes for 1 min, and then specimens were washed with PBS three times. Subsequently, the specimens were longitudinally sectioned at a thickness of 0.5 mm using a safe diamond disc. The sections were mounted onto glass slides and scanned under a confocal laser scanning microscope (LSM 700; Carl Zeiss, Jena, Germany).

hDPCs = test: MTT cytotoxicity / proliferation assay; format: cell-based, human; conditions: 0 to 5 days, absorbance 540 nm, three independent experiments in triplicate
Description: To evaluate the effects of Cpne7-DP on hDPCs proliferation, an MTT [3-(4,5-Dimethylthiazol-2-yl)-2,5-diphenyltetrazolium bromide, a tetrazole] assay (Sigma-Aldrich, Saint Louis, MO, USA) was performed. Cells were seeded on a 96-well plate at a density of 3 × 10^3 cells/well and treated with Cpne7-DP after 24 h. Cells were cultured for up to 5 days, and MTT analyses were performed on days 0, 1, 3, and 5. After washing with phosphate-buffered saline (PBS), 20 µL of MTT was added to each well and incubated for 4 h at 37 °C. After removing the MTT solution, the converted dye was dissolved in Me2SO and measured by reading the absorbance at a wavelength of 540 nm with a microplate reader (Multiskan EX; Thermo Electron Corp., Waltham, MA, USA). Three independent experiments with triplicate samples were analyzed.

## KYKQKRRSYK [Cpne7-DP]
MDPC-23 cells; MDPC-23 cells pre-treated with CPZ 10 and 20 μM for 1 h, immunofluorescence
  Internalization with chlorpromazine (clathrin-mediated endocytosis inhibitor): diffusely localized to the cytoplasm
MDPC-23 cells; MDPC-23 cells pre-treated with EIPA for 1 h, immunofluorescence
  Internalization with ethylisopropyl amiloride (macropinocytosis inhibitor): no effect on the cytoplasmic localization
MDPC-23 cells; MDPC-23 cells pre-treated with MβCD for 1 h, immunofluorescence
  Internalization with methyl-β-cyclodextrin (caveolin-mediated endocytosis inhibitor): diffusely localized to the cytoplasm
MDPC-23 cells; MDPC-23 cells pre-treated with nucleolin siRNA for 1 h, immunofluorescence
  Internalization in nucleolin siRNA-transfected cells: diffusely located in the cytoplasm
MDPC-23 cells; MDPC-23 cells, Cy5-labeled Cpne7-DP 10 µg/mL, fixed 3 h later, fluorescence microscopy
  Intracellular distribution: localized to the cytoplasm
[1]
  Ability to permeate dentinal tubules: flow through the entire length of the dentinal tubules into the pulp
hDPCs
  Cytotoxicity versus control (MTT): no significant difference in cytotoxicity

— publication PMC7603008 (Materials, 2020)
